Assay [1] in a line: Selectivity is the binding affinity towards human 5-HT1B receptor to that of human 5-HT1F receptor.
The nature of assay [2]: Selectivity is the binding affinity towards human 5-HT1A receptor to that of human 5-HT1F receptor.
Assay [3] can be described thus: Selectivity is the binding affinity towards human 5-HT1D receptor to that of human 5-HT1F receptor.
Assay [4] concerns the target T1, 5-hydroxytryptamine receptor 1F (Homo sapiens, UniProt P30939).
T1 sequence (P30939 whole entry): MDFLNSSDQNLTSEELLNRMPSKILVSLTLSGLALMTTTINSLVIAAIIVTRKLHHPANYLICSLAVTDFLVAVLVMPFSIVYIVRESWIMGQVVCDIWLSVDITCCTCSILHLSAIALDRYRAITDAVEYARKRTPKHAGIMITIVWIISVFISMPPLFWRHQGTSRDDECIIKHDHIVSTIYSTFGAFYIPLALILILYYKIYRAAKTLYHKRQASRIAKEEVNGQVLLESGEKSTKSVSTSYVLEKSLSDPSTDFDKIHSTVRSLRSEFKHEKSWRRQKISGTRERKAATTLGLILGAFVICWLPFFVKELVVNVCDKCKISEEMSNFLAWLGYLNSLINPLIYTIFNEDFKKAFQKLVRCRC
Nature of the assay: Binding affinity towards human 5-hydroxytryptamine 1F receptor.

The target of assay [5] is T2, 5-hydroxytryptamine receptor 1F (Homo sapiens) (UniProt P30939).
T2 sequence (whole entry): T1 sequence (P30939 whole entry)
Nature of the assay: In vitro agonist potency against human 5-hydroxytryptamine 1F receptor. The class given is functional.

Two compounds from ChEMBL document CHEMBL1134277, “N-[3-(2-Dimethylaminoethyl)-2-methyl-1H- indol-5-yl]-4-fluorobenzamide: a potent, selective, and orally active 5-HT(1F) receptor agonist potentially useful for migraine therapy” (J Med Chem, 2001) can be followed below.

By Ki is commonly meant a dissociation constant, usually derived from enzyme kinetics or from competition with a known ligand. What is called Emax is the maximal effect, on the per cent scale that the assay sets.

As for `CN(C)CCc1c[nH]c2cccc(NC(=O)c3ccc(F)cc3)c12`, the Selectivity turned out to be 9 in assay [1], 3 in assay [2] and 3 in assay [3]. Also, the Ki in assay [4] is 3.8 nM.
In the case of `CNS(=O)(=O)Cc1ccc2[nH]cc(CCN(C)C)c2c1`, the Emax in assay [5] was 98%.
